According to US20240408071A1, “NOVEL COMBINATION OF SEROTONIN RECEPTOR (5-HTR2B) ANTAGONIST AND AN IMMUNOMODULATOR AND CHEMOTHERAPEUTIC DRUGS FOR INHIBITION OF CANCER” (NATIONAL CENTRE FOR CELL SCIENCE, priority 2021, published 2024):

Key:
MC38 cells = assay: Cell cycle analysis of MC38 cells by propidium iodide staining (flow cytometry); type: cell-based, mouse; conditions: 48-hour stimulation; BW-723C86 50 μM, SB-215505 50 μM per FIG. 6 legend
Experimental: FIG. 6 depicts that 5-HTR2B signalling in colon cancer affects cell proliferation and viability: Colon cancer MC38 cells were treated with serotonin (100 μM), 5-HTR2B agonist (BW-723C86; 50 μM), or 5-HTR2B antagonist (SB-215505; 50 μM) for 48 hours, and cell cycle analysis was performed by propidium iodide staining using flow cytometry. MC38 cells were also treated with a graded dose of 5-HTR2B agonist (BW-723C86) or serotonin. MTT assay was performed to measure cell viability. (A) After treatment with 5-HTR2B agonist BW-723C86, serotonin, or 5-HTR2B antagonist SB-215505, the relative cell cycle analysis is shown. (B) Relative cell viability data of MC38 cells following treatment of graded doses of 5-HTR2B agonist BW-723C86 or serotonin are shown. The data shown are representative of one of the three independent experiments. (C) MC38 tumor sections from the control tumor and 5-HTR2B antagonist treated tumor were stained for CD31 and the number of CD31^+ micro-blood vessels/mm^2 of tissue sections was counted and plotted to observe angiogenesis. Error bar represents ±standard error of the mean (SEM).
MC38 cells were seeded in 6 well plates at a density of 5×10^4 cells/well. Cells were allowed to accommodate in the environment for 24 hours. The treatment with 5-HTR2B agonist (BW-723C86), Serotonin, and 5-HTR2B antagonist (RS-127445) was performed at different time points. […]

[1] = tested on: tumor-infiltrating immune cells in MC38 tumor; assay: Tumor-infiltrating immune cells in MC38 tumor (flow cytometry / immunohistochemistry); type: in vivo, C57BL/6 mice
Experimental: FIG. 7 depicts that antagonizing the 5-HTR2B in mice inhibits breast and colon tumor growth: (A) MC38 colon cancer cells were injected subcutaneously into the right flank of C57BL/6 mice. […] Tumor volumes were measured and plotted. (B) MC38 colon cancer cells were injected subcutaneously into the right flank of C57BL/6 mice. After seven days when tumors became palpable, one group was treated with 5-HTR7 antagonist SB-269970 (n=6 mice; 3 mg/kg/day) or left untreated (n=6 mice). Tumor volume was measured and plotted. (C) After seven days of the setting of tumor growth, one group was treated with a serotonin transporter blocker (SSRI) sertraline hydrochloride (n=6 mice; 15 mg/kg/week) or left untreated (n=6 mice). Tumor volume was measured and plotted. (D) C57BL/6 mice were given subcutaneously injected MC38 cells. After seven days of tumor growth, one group of mice was treated with different doses of 5-HTR2B antagonist SB-215505 (n=6). Tumor volume was measured and plotted. (E) C57BL/6 mice were given subcutaneously injected MC38 cells. After seven days of the tumor growth, one group of mice was treated with different doses of 5-HTR2B antagonist SB-215505 (n=6), one group treated with 5-HTR2B agonist BW-723C86 (n=6; 4 mg/kg/day). Tumor volume was measured and plotted. (F) MC38 cells were subcutaneously injected into C57BL/6 mice. After seven days when the tumor became palpable in mice, one group of mice was treated with FDA-approved 5-HTR2B antagonist cariprazine (Carispec; Sun pharma) via oral gavage (n=5 mice; dose 5 mg/kg body weight/day) or left untreated (n=5 mice). Tumor growth was measured and plotted. (G) Breast cancer cell lines (4T1-Luc cells) were injected into the mammary fatpad of BALB/c mice. After seven days of the tumor growth setting in mice, one group of mice was treated with 5-HTR2B antagonist SB-215505(n=5 mice) or left untreated (n=5 mice). Tumour volumes were measured and plotted. (H) Mice melanoma (B16F10 cells) were injected subcutaneously in the left flank of C57BL/6J mice. After seven days of the tumor growth setting in mice, one group of mice was treated with 5-HTR2B antagonist SB-215505(n=5 mice) or left untreated (n=5 mice). Tumour volumes were measured and plotted. (I) Statistical analysis of the flow cytometric data showing the differential expression of F4/80^+CD11B^+ macrophages within MC38 tumor following treatment with 5-HTR2B antagonist. (J) Statistical analysis of the flow cytometric data showing the differential expression of F4/80^+CD11B^+ iNOS^+ M1 macrophages within MC38 tumor following treatment 5-HTR2B antagonist. (K) Statistical analysis of the flow cytometric data showing the differential expression of F4/80^+CD1B^+ Arg1^+ M2 macrophages within MC38 tumor following treatment with 5-HTR2B antagonist. (L) Immuno-Histochemistry data of MC38 tumor tissue from control and 5-HTR2B antagonist treated mice showing expression of F4/80 (cyan), iNOS (blue), arginase 1 (green), and CD11c (red). Images are taken in […] and inset images are acquired in 600× magnification and DAPI (blue) is used as counterstain. All the images in the panel were taken at 200× magnification. The image in the inset was taken in 600× magnification. All the statistical analysis was performed using Student's ‘t’ test or two-way ANOVA using Sidak's multiple comparison test. *P<0.05; **P<0.01; […]; ****P<0.0001 Error bar represents mean±standard error of means (SEM).
FIG. 9 depicts the effect of5-HTR antagonists on the CTL response MC38 tumor model in mice: (A) Clinical data correlation study. A TIDE computational method was used to study the association between the tumor-infiltrating CD8 T cells (also known as cytotoxic T lymphocytes, CTL) level and overall subject survival in relation to the intratumoral 5-HTR2B gene expression level. […]

[2] = day 24, compared to control and SB-215505 treated tumor (FIG. 14)

Compound: CC(N)Cc1c[nH]c2ccc(OCc3cccs3)cc12 (stereo not shown) [BW-723C86]
- percentage of MC38 cells in the S phase of the cell cycle (MC38 cells): increased percentage of cells in the S phase

Compound: CC(C)c1cc(-c2ccc(F)c3ccccc23)nc(N)n1 [RS-127445]
- total CD11c+ DCs in the TME [1]: reducing the total CD11c^+ DCs
- percentage of PD-L1+ CD11c+ DCs in the tumor [1, 2]: much reduced percentage
- percentage of PD-L1+ arginase1+ M2 macrophages in the tumor [1, 2]: much reduced percentage
- percentage of PD-L1+ total macrophages in the tumor [1, 2]: much reduced percentage
- percentage of PD-L1+iNOS+ M1 macrophages in the tumor [1, 2]: much reduced percentage
- percentage of total CD11b+Gr1+ MDSCs in the tumor [1, 2]: much reduced percentage
